Assay results published in paper PMC12795676, “Integrin α5β1 mediates the inhibitory effects of vasoinhibin on angiogenesis and vascular permeability [drawing 1]” (The Journal of Biological Chemistry, 2025).
pEC50, pIC50, pKd: −log10 of the molar value. “Also recorded” adds a separate entry of the source. Residues, ends and D or L forms follow the SMILES beside them. No end group written: not given here. *: point of attachment. Biotin = O=C1N[C@H]2[C@H](CS[C@H]2CCCCC(=O)*)N1

Key:
endothelial cells [1] = conditions: cited from earlier work
endothelial cells [2] = conditions: cited from earlier work; remark: listed apart in the source
PAI-1 [3] = biological target: T1, PAI-1 (Homo sapiens, UniProt P05121); conditions: cited from earlier work
Description: We recently identified two distinct functional motifs in the Vi molecule: the HGR and the HNLSSEM motifs. […] These discrep ...

integrin α5β1 [4] = biological target: T2, integrin α5β1 (Homo sapiens, UniProt P05556+P08648); assay: Competitive ELISA, Vi binding to integrin α5β1; conditions: excess competitor
T2 construct: purchased Bio-Techne
Method: (§1) Vi ([49]) and its mutants were produced as reported ([14]). HUVECs were cultured as reported ([14], [50]).
(§2) Plates coated with 2 μg mL^−1 integrin α5β1, PAI-1, or PAI-1-uPA complex (37 °C, 10 min) were incubated with B-Vi45-51, Vi, or 100 nM ViH46A, ViR48A, or ViH46A/R48A. Competition used excess Src, alanine mutants, or THGR peptides. Detection used horseradish peroxidase antibodies and 3,3′,5,5′-tetramethylbenzidine.

integrin α5β1 [5] = biological target: T2, integrin α5β1; assay: Competitive ELISA, B-Vi45-51 binding to immobilized integrin α5β1; conditions: excess competitor
Method: as §1, §2

PAI-1 [6] = assay: Pull-down and Western blot, PAI-1; type: binding, human (HUVEC lysates); conditions: HUVEC lysates; 500 nM B-Vi45-51, 1 h; Western blot
Method: (§3) To test whether Vi’s HGR motif binds integrin α5β1, human umbilical vein endothelial cells (HUVECs) were treated with a biotinylated peptide comprising residues 45 to 51 (B-Vi45-51) and subjected to pull-down and Western blot.
(§4) HUVECs treated with 500 nM B-Vi45-51, 20 ng mL^−1 bFGF, and 25 ng mL^−1 VEGF for 1 h were lysated in radioimmunoprecipitation assay, sonicated, incubated 30 min at 37 °C, and pulled down with Dynabeads Streptavidin T1 (Thermo). Eluates were analyzed by a Western blot for integrin α5, PAI-1, and uPAR.

integrin α5β1 [7] = biological target: T2, integrin α5β1; assay: ELISA, binding to immobilized integrin α5β1; conditions: dose-dependent, plates coated with 2 μg mL^−1
Method: as §1, §2

uPAR = assay: Pull-down and Western blot, uPAR; type: binding, human (HUVEC lysates); conditions: HUVEC lysates; 500 nM B-Vi45-51, 1 h; Western blot
Method: as §3, §4

PAI-1-uPA complex = PAI-1-uPA complex (Homo sapiens, UniProt P00749+P05121); assay: ELISA, binding to immobilized PAI-1-uPA complex; conditions: for Binding to immobilized PAI-1-uPA complex: plates coated with 2 μg mL^−1
Method: as §2

integrin α5 = assay: Pull-down and Western blot, integrin α5; type: binding, human (HUVEC lysates)
Method: as §3, §4

[8] = test system: HUVEC adhesion to fibronectin; assay: HUVEC adhesion to fibronectin; type: cell-based, human; conditions: 1 h
Method: HUVECs (43,000 cells cm^−2) were added and incubated at 37 °C for 1 h. Cells were washed twice and quantified by 3-(4,5-dimethylthiazol-2-yl)-2,5-diphenyltetrazolium bromide.

HUVECs [9] = assay: Tube formation on Matrigel; type: cell-based, human; conditions: 100 nM Vi or Vi45-51, 6 h; shITGA5 HUVEC vs WT
Method: HUVEC tubular network formation was evaluated as reported ([14], [51]). HUVECs were seeded on Matrigel and treated with 100 nM Vi or Vi45-51 for 6 h. Micrographs were analyzed by Angiogenesis Analyzer ([52]).

HUVECs [10] = assay: Endothelial cell proliferation (EdU); type: cell-based, human; conditions: 24 h; for Effect of ITGA5 knockdown on inhibition of endothelial proliferation: 100 nM Vi or Vi45-51, bFGF + VEGF, shITGA5 HUVEC vs WT; for Effect of anti-α5β1 antibody on inhibition of VEGF + bFGF-induced proliferation: 100 nM Vi or Vi45-51, 20 μg mL^−1 anti-α5β1
Method: As reported ([14]), HUVECs were serum-starved for 8 h and treated with 100 nM Vi45-51 or Vi, bFGF + VEGF, and 20 μg mL^−1 anti-α5β1 antibody in 20% fetal bovine serum for 24 h. EdU incorporation was detected with Azide Fluor 545 (Sigma).

HUVEC monolayers = assay: Endothelial permeability (TEER); type: cell-based, human; conditions: 100 nM Vi or Vi45-51 for 1 h, then 50 ng mL^−1 VEGF; TEER 120 min; n = 6
Method: HUVECs were grown to confluency on 0.4 μm pore Transwells, treated with 100 nM Vi45-51 or Vi for 1 h, then stimulated with 50 ng mL^−1 VEGF. Transendothelial electrical resistance was recorded for 120 min using the EVOM2 meter (World Precision Instruments).

PAI-1 [11] = biological target: T1, PAI-1; assay: ELISA, binding to immobilized PAI-1
Method: as §2

PAI-1 knockout mice = conditions: cited from earlier work
Description: The HGR motif is the sole antiangiogenic determinant of Vi, as its mutation leads to the loss of Vi’s antiangiogenic function ([14]). Given that Vi binds to integrin α5β1 via its HGR motif and that knockdown of ITGA5 abolishes the effects of Vi on endothelial cell proliferation, invasion, vascular permeability, and tube formation in vitro, while an antibody against integrin α5β1 suppresses the antiangiogenic effect of Vi in the in vivo Matrigel plug assay, integrin α5β1 emerges as the binding partner mediating the antiangiogenic activity of Vi. Integrin α5β1 is critical for angiogenesis ([16]) ...

[12] = test system: Matrigel plug vascularization (Pecam1); assay: Matrigel plug assay; type: in vivo, male C57BL/6 mice; conditions: mice, s.c. plugs, 100 nM Vi or Vi45-51, bFGF + VEGF, 20 μg mL^−1 anti-α5β1; 7 days; Pecam1 mRNA
Method: As previously described ([14], [53], [54]), 6-week-old male C57BL/6 mice were subcutaneously injected with two 0.5 ml plugs supplemented with 300 ng mL^−1 bFGF and 100 ng mL^−1 VEGF, 100 nM Vi or Vi45-51, and 20 μg mL^−1 anti-integrin α5β1 antibody. After 7 days, plugs were collected, and Pecam1, relative to GAPDH, was quantified by quantitative PCR as reported ([14]). Procedures followed institutional ethical approval (Bioethics Committee, Instituto de Neurobiología, UNAM) and were in accordance with the Guide for the Care and Use of Laboratory Animals (http://www.ncbi.nlm.nih.gov/books/NBK54050/).

HUVECs [13] = assay: Matrigel invasion; type: cell-based, human; conditions: 100 nM Vi or Vi45-51, 16 h; shITGA5 HUVEC vs WT
Method: As reported ([14]), HUVECs on Matrigel-coated Transwells were treated with 100 nM of Vi45-51 or Vi. After 16 h, invading cells were counted.

HUVECs [14] = assay: Apoptosis (Cell Death Detection ELISA); type: cell-based, human; conditions: 100 nM Vi, 24 h; shITGA5 HUVEC vs WT
Method: As reported ([13]), HUVEC were treated with 100 nM Vi or Vi45-51 for 24 h, and apoptosis was analyzed using the Cell Death Detection ELISA kit (Roche).

## Ac-PHSCN-NH2 [ATN-161, PHSRN-based peptide (Ac-PHSCN-NH2), reference compound]
Endothelial cells [1]
  Induction of apoptosis (anoikis): induce apoptosis through anoikis
Endothelial cells [2]
  Disruption of endothelial adhesion: disrupt endothelial adhesion

## HNLSSEM [HNLSSEM motif]
PAI-1 [3]
  Binding to PAI-1 (literature): mediates Vi binding to PAI-1
Endothelial cells [1]
  Apoptosis induction via uPAR-dependent mechanism: induces endothelial apoptosis through a uPAR-dependent mechanism

## THGR [HGR-containing tetrapeptide THGR]
Integrin α5β1 [4]
  Inhibition of Vi binding to integrin α5β1: blocked Vi–integrin interaction

## H46A: alanine-scanning mutant peptide, alanine substitution at H46 (TAGRGFI)
Integrin α5β1 [5]
  Inhibition of B-Vi45-51 binding to integrin α5β1: abolished inhibition

## cilengitide [reference compound]
Endothelial cells [1]
  Induction of apoptosis (anoikis): induce apoptosis through anoikis
Endothelial cells [2]
  Disruption of endothelial adhesion: disrupt endothelial adhesion

## CC[C@H](C)[C@H](NC(=O)[C@H](Cc1ccccc1)NC(=O)CNC(=O)[C@H](CCCNC(=N)N)NC(=O)CNC(=O)[C@H](Cc1c[nH]cn1)NC(=O)[C@@H](NC(=O)CCCC[C@@H]1SC[C@@H]2NC(=O)N[C@@H]21)[C@@H](C)O)C(=O)O [B-Vi45-51] (Biotin-THGRGFI-OH; N-terminus and C-terminus assumed)
PAI-1 [6]
  Pull-down of PAI-1: failed to pull down
Integrin α5β1 [7]
  Binding to immobilized integrin α5β1: dose-dependent binding
uPAR
  Pull-down of uPAR: failed to pull down
PAI-1-uPA complex
  Binding to immobilized PAI-1-uPA complex: not to PAI-1 or the PAI-1-uPA complex
Integrin α5; HUVEC lysates, 500 nM B-Vi45-51, 1 h, Dynabeads Streptavidin T1, Western blot, ∼145 kDa
  Pull-down of integrin α5: Integrin α5 was precipitated
Integrin α5; HUVECs, 500 nM B-Vi45-51, 20 ng mL^−1 bFGF, 25 ng mL^−1 VEGF, 1 h
  Effect of VEGF + bFGF on pull-down of integrin α5: did not affect binding

## R48A: Vi45-51 mutated by alanine in R48 (THGAGFI)
Integrin α5β1 [5]
  Inhibition of B-Vi45-51 binding to integrin α5β1: abolished inhibition
[8]; fibronectin 1 μg cm^−2, 37 °C
  HUVEC adhesion to fibronectin, dose–response: did not

## N=C(N)NCCC[C@H](N)C(=O)NCC(=O)N[C@@H](CC(=O)O)C(=O)O [RGD, reference compound]
[8]; dose–response, fibronectin 1 μg cm^−2, 37 °C, MTT read-out, nonlinear regression (r^2 > 0.8), at least three independent experiments, read-out: IC50, inhibition of HUVEC adhesion to fibronectin
  pIC50: 7.21

## vasoinhibin [Vi]
HUVECs [9]
  Effect of ITGA5 knockdown on inhibition of tube formation: abolished the inhibitory effects
Endothelial cells [1]
  Effect of antibodies against integrin α5β1 on Vi-induced endothelial cell apoptosis: partially prevented
HUVECs [10]
  Effect of ITGA5 knockdown on inhibition of endothelial proliferation: abolished the inhibitory effects
  Effect of anti-α5β1 antibody on inhibition of VEGF + bFGF-induced proliferation: prevented the inhibitory effects
Integrin α5β1 [7]
  Binding to immobilized integrin α5β1: bound all three
HUVEC monolayers
  Effect of ITGA5 silencing on inhibition of VEGF-induced permeability: ablated the inhibitory effect
PAI-1 [11]; immobilized PAI-1, at least three independent experiments
  pKd: 6.28
PAI-1 [11]; plates coated with 2 μg mL^−1
  Binding to immobilized PAI-1: bound all three
PAI-1 knockout mice
  Antiangiogenic and antitumor effects in PAI-1 knockout mice: lost in PAI-1 knockout mice
[12]
  Effect of anti-α5β1 antibody on inhibition of Matrigel plug vascularization: prevented the inhibitory effects
HUVECs [13]
  Effect of ITGA5 knockdown on inhibition of invasion: abolished the inhibitory effects
HUVECs [14]
  Effect of ITGA5 knockdown on Vi-induced apoptosis: did not abolish Vi-induced apoptosis; in fact, it was even slightly increased; also recorded: did not prevent, but slightly enhanced
PAI-1-uPA complex; immobilized PAI-1-uPA complex, at least three independent experiments
  pKd: 6.39
PAI-1-uPA complex
  Binding to immobilized PAI-1-uPA complex: bound all three

## THGRGFI [Vi45-51]
Integrin α5β1 [5]
  Inhibition of B-Vi45-51 binding to integrin α5β1: inhibited B-Vi45-51 binding
HUVECs [9]
  Effect of ITGA5 knockdown on inhibition of tube formation: abolished the inhibitory effects
HUVECs [10]
  Effect of ITGA5 knockdown on inhibition of endothelial proliferation: abolished the inhibitory effects
  Effect of anti-α5β1 antibody on inhibition of VEGF + bFGF-induced proliferation: prevented the inhibitory effects
HUVEC monolayers
  Effect of ITGA5 silencing on inhibition of VEGF-induced permeability: ablated the inhibitory effect
[12]
  Effect of anti-α5β1 antibody on inhibition of Matrigel plug vascularization: prevented the inhibitory effects
HUVECs [13]
  Effect of ITGA5 knockdown on inhibition of invasion: abolished the inhibitory effects
[8]; 1 μM, fibronectin 1 μg cm^−2, 37 °C, Fig. 4C
  HUVEC adhesion to fibronectin at 1 μM: enhanced fibronectin-mediated adhesion
[8]
  pEC50: 8.34
[8]; fibronectin 1 μg cm^−2, 37 °C
  HUVEC adhesion to fibronectin, dose–response: increased the adhesion in a dose-dependent manner
